Experimental data published in ChEMBL document CHEMBL1152926, “Terpenoid constituents of Abies chensiensis with potential anti-inflammatory activity” (J Nat Prod, 2009).
Converted amounts (≈) assume the structure as drawn.

What was measured:
RAW264.7 [1] = experiment: Cytotoxicity against mouse RAW264.7 cells; assay type: cell-based
RAW264.7 [2] = experiment: Antiinflammatory activity in mouse RAW264.7 cells assessed as inhibition of LPS-induced nitric oxide production; assay type: functional, cell-based

Row | IC50 (RAW264.7 [2]) | Compound | IC50 (RAW264.7 [1])
1 | 9.1 µg/mL (≈ 19.5 µM) | CC1=CC(O)(C[C@@H](C)C2=CC[C@@]3(C)C4=C(CC[C@]23C)[C@@]2(C)CCC(=O)C(C)(C)[C@@H]2CC4)OC1=O (some centres not stated) [NEOABIESLACTONE E] | 20 µg/mL (≈ 42.9 µM)
2 | 9.6 µg/mL (≈ 33 µM) | C=C[C@@](C)(O)CC[C@H]1C(=C)CC[C@H]2C(C)(C)CCC[C@]12C [MANOOL] | 32.3 µg/mL (≈ 111 µM)
3 | 1.9 µg/mL (≈ 6.2 µM) | C=C[C@@](C)(O)[C@H]1C[C@@H]2[C@@]3(C)CCCC(C)(C)[C@@H]3CC[C@@]2(C)O1 | 0.6 µg/mL (≈ 1.96 µM)

Row | Compound | IC50 (RAW264.7 [2]) | IC50 (RAW264.7 [1])
4 | N=C(N)NN [PIMAGEDINE] | 3.4 µg/mL (≈ 45.9 µM) | 
